Measured values from patent US20040009126A1, “Inhalation system for prevention and treatment of intracellular infections” (priority 2002, published 2004).

Details: mice, intratracheal administration, lungs
Source text: FIG. 2 is a graphical representation of the biodistribution of ciprofloxacin in the lungs upon administration of ciprofloxacin in liposomal form by inhalation and in free form by inhalation and orally.
The distribution following IT administration was compared with the distribution obtained in the lungs following an oral delivery of ciprofloxicin.

Question: With `O=C(O)c1cn(C2CC2)c2cc(N3CCNCC3)c(F)cc2c1=O` [free ciprofloxicin, ciprofloxicin] as the compound, how does the “lung level of ciprofloxicin over time” value read?
Answer: negligible after one hour
